Assay [1] relates to P. aeruginosa Strain 121007. The assay is classed as cell-based, Pseudomonas aeruginosa. The gist of the method: (§1)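 Broth microdilution MIC based on CLSI guidance, peptides tested in AST broth in polypropylene round-bottom plates to limit peptide adsorption; colistin tested in cation-adjusted Mueller-Hinton broth per CLSI-EUCAST polymyxin recommendations with E. coli 13846 (mcr-1) and P. aeruginosa ATCC 27853 as QC. Three biological and technical replicates.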

The test system of assay [2] is P. aeruginosa Strain ATCC 121110. The assay is classed as cell-based, Pseudomonas aeruginosa. The gist of the method: as §1
For assay [3], the system named is P. aeruginosa strain panel. In kind it is cell-based, Pseudomonas aeruginosa. The gist of the method:
as §1

A further assay relates to human erythrocytes. As to the kind of experiment: Hemolysis assay. In kind it is cell-based. Particulars: for Hemolysis IC50: human erythrocytes, 4 h at 37 °C, value in brackets; for pIC50: red cells of human, 4 h. How it is done:
Commercially available human blood (IWB1K2E10ML, Innovative Research Inc., Novi, MI, USA) was used to produce a 50% haematocrit solution by mixing at 1:1 with PBS 1× (P5493, 1 L, Sigma, St. Louis, MO, USA). Three consecutive PBS 1× washes plus centrifugation at 2600 rpm for 10 min steps were performed. Finally, a 2% erythrocyte solution was prepared in PBS 1× and chilled on ice until used. Polypropylene plates were filled with 50 µL PBS 1× per well for the samples and 50 µL 2% Triton X-100 (TX-100, 9002-93-1, 100 mL, Sigma, St. Louis, MO, USA) for the hemolysis controls. A solution at 4× final concentration of the assay of each peptide was prepared in PBS and 50 µL were added to the first column of each plate, followed by serial dilutions in the microplate. Then, 50 µL of the 2% erythrocyte solution was added to each plate. […] controls consisted in a 1:1 mix of PBS 1× and erythrocytes at 2%. Plates were incubated at 37 °C for 4 h and then centrifuged at 1500 rpm for 5 min. Eighty µL were extracted from the supernatant of each well carefully and transferred to a polystyrene flat bottom plate for reading and read at 450 nm in an Epoch microplate spectrophotometer (Epoch™, BioTek, Winooski, VT, USA).
The therapeutic index is a widely accepted parameter to represent the specificity of antimicrobial peptides for prokaryotic versus eukaryotic cells. It is calculated by the ratio of HC50 (hemolytic activity) and MIC (antimicrobial activity); thus, larger values of therapeutic index indicate greater specificity for prokaryotic cells.

The next assay has as its system A549 cells. In kind it is cell-based, human. To be noted: for pIC50: 24 h; for A549 IC50: 24 h treatment, XTT, value in brackets. How it is done:
(§2) Cell viability assays were performed against HeLa and A549 cells. Cells were seeded in Corning 96-well microplates at 2 × 10^3 cells/well and 5 × 10^3 cells/well and incubated for 24 h at 37 °C. Then, cells were treated with peptides dissolved in Dulbecco’s Modified Eagle’s Medium for 24 h; peptide concentration range 0.1–100 µM. The peptide solution was then removed, and fresh medium was added to the cells. Finally, 50 µL of activated-XTT solution was added and incubated for 4 h at 37 °C. A PowerWave X reader (BioTek, Winooski, VT, USA) was used to measure absorbance at 450 nm. Cell viability was calculated through the ratio of the absorbance of peptide-treated cells over the absorbance of untreated cells. Triplicates were run for each experiment.

In a further assay the test system is HeLa cells. The assay is classed as cell-based, human. To be noted: 24 h. How it is done: as §2
In assay [4] the test system is P. aeruginosa R2 and 121110 strains. Nature of the assay: Transmission electron microscopy of treated bacteria. Particulars: 4 h incubation at 4× MIC. In kind it is cell-based, Pseudomonas aeruginosa. How it is done:
Bacterial strains P. aeruginosa R2 and 121110 under treatment with CAP-18, CAP-18_31, D-CAP-18, and D-CAP-18_31 were chosen for TEM visualization. A total of 5 mL AST broth cultures were prepared in 50 mL Falcon tubes and inoculated with single colonies grown in Columbia Agar incubated at 37 °C. Liquid cultures were then diluted 1:100 in fresh AST broth and incubated at 37 °C until OD 0.6 was reached. Cultures were then centrifuged 10 min at 3000× g at 4 °C, and supernatant was discarded and replaced by fresh AST. […] Results from TKC assays were used as a guidance to choose peptide concentrations and incubation times for TEM sample visualization. After incubation, tubes were centrifuged thrice for 15′ at 5000× g and 4 °C, substituting supernatant after each centrifugation by adding 10 mL PBS 1× to the pellet and resuspending. Supernatant was discarded after the final centrifugation step. Pellet was fixed by adding 1 mL of 2.5% glutaraldehyde + 2% paraformaldehyde in PBS 0.1 M at pH 7.4, and centrifuged 10′ at 5000× g and 4 °C. Supernatant was discarded 30 min after centrifugation and pellet was washed twice with 1 mL of fresh fixing solution. Samples were stored 4 °C O/N and processed by the Electronic Microscopy Unit, Medicine Faculty, University of Barcelona. University of Barcelona Microscopy Facilities.

Where [5] appears, read: Strain 121007, value in brackets.
The mark [6] stands for this setting: Strain ATCC 121110, value in brackets.
The mark [7] stands for this setting: panel of 15 P. aeruginosa strains.
The mark [8] stands for this setting: panel of 15 P. aeruginosa strains, value in brackets.

pIC50: −log10 of the molar value. Like-named read-outs stand apart in the source and are kept apart here. Square brackets hold non-standard residues; d marks the D form. Peptide text beside a SMILES is read from it.

The values below come from paper PMC12382740, “In Vitro and In Vivo Characterization of Novel Cathelicidin-Based Peptides with Antimicrobial Activity Against Pseudomonas aeruginosa” (Antibiotics, 2025).

Regarding `CC[C@@H](C)[C@@H](NC(=O)[C@@H](CCCCN)NC(=O)[C@@H](CCCCN)NC(=O)[C@@H](CC(C)C)NC(=O)[C@@H](CCCCN)NC(=O)[C@@H](CCC(=O)O)NC(=O)[C@@H](CCCCN)NC(=O)[C@H](NC(=O)[C@@H](CCCCN)NC(=O)[C@@H](CC(N)=O)NC(=O)[C@@H](CCCNC(=N)N)NC(=O)[C@@H](Cc1ccccc1)NC(=O)[C@@H](CCCCN)NC(=O)[C@@H](CCCNC(=N)N)NC(=O)[C@@H](CC(C)C)NC(=O)[C@@H](CCCNC(=N)N)NC(=O)[C@@H](CCCCN)NC(=O)[C@@H](CCCNC(=N)N)NC(=O)[C@@H](CC(C)C)NC(=O)CN)[C@H](C)CC)C(=O)NCC(=O)N[C@H](CCC(N)=O)C(=O)N[C@H](CCCCN)C(=O)N[C@@H](C(=O)N[C@H](CCC(N)=O)C(=O)NCC(=O)N[C@H](CC(C)C)C(=O)N[C@H](CC(C)C)C(=O)N1CCC[C@@H]1C(=O)N[C@H](CCCCN)C(=O)N[C@H](CC(C)C)C(=O)O)[C@H](C)CC` [D-CAP-18_31, Glrkrlrkfrnkikeklkkigqkiqgllpkl] (H-G[dL][dR][dK][dR][dL][dR][dK][dF][dR][dN][dK][dI][dK][dE][dK][dL][dK][dK][dI]G[dQ][dK][dI][dQ]G[dL][dL][dP][dK][dL]-OH), the MIC in assay [1] (Strain 121007) is 2 µg/mL; in assay [1] (setting [5]) it was 0.5 µM; in assay [2] (Strain ATCC 121110), 0.25 µg/mL; in assay [2] (setting [6]) it was 0.07 µM. The values for the MIC50 in assay [3] (setting [7]) and in assay [3] (setting [8]) were 4 µg/mL and 1.1 µM, respectively. The MIC90 in assay [3] (setting [7]) stood at 16 µg/mL; in assay [3] (setting [8]) it was 4.3 µM; in assay [3] (strain panel), 16 µg/mL. Moreover, in the assay with human erythrocytes, the “Hemolysis IC50” value amounted to 404.48 µg/mL. In addition, the values for the pIC50 with human erythrocytes, in the assay with A549 cells and with HeLa cells were 3.96, 4.91 and 5.21, respectively. Also, the “A549 IC50” value in the assay on A549 cells stood at 45.94 µg/mL. In assay [4], the “effect on cell morphology (TEM)” value is “different stages of cellular damage”.

As to “H-GLRKRLRKFRNKIKEKLKKIGQKIQGLLPKL-OH [CAP-18_31]”, the minimum inhibitory concentration (MIC) in assay [1] (Strain 121007) is 8 µg/mL; in assay [1] (setting [5]), 2.1 µM; in assay [2] (Strain ATCC 121110), 0.5 µg/mL; in assay [2] (setting [6]), 0.1 µM. Also, the MIC50 was 2 µg/mL in assay [3] (setting [7]), 0.5 µM in assay [3] (setting [8]) and 2 µg/mL in assay [3] (strain panel). Besides, the MIC90 was 16 µg/mL in assay [3] (setting [7]) and 4.3 µM in assay [3] (setting [8]). Moreover, the “Hemolysis IC50” value in the assay with human erythrocytes is 690.97 µg/mL. In addition, the pIC50 was 3.73 with human erythrocytes, 5.88 with A549 cells and 4.88 in the assay with HeLa cells. Moreover, the “A549 IC50” value in the assay with A549 cells was determined as 4.89 µg/mL. Also, the “effect on cell morphology (TEM)” value in assay [4] is listed as “different stages of cellular damage”.

The MIC is the least concentration at which growth counts as inhibited. A higher MIC goes with a need for much substance. What is called MIC50 is an inhibitory concentration at the 50% level, which refers to growth in some studies and to a panel of isolates in others. Higher therefore signals lower susceptibility. In general, MIC90 refers to an inhibitory concentration at the 90% level, which refers to growth in some studies and to a panel of isolates in others. A high value points to weaker potency. What is called pIC50 is the IC50 on a negative log10 scale, so that one unit is a factor of ten.
